Experimental findings from PubChem BioAssay (NCI) are described below.

Structures are written as SMILES.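 How tested: cells in 96-well plates exposed to compound for 48 hours at five concentrations. Abbreviation: GI50, concentration required for 50% inhibition of growth. TGI: total growth inhibition.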

Common to all, as to experiment: NCI-60 cell line screen, 48 h
Assay [1] deals with MALME-3M melanoma.
The test system of assay [2] is OVCAR-4 ovarian.
Assay [3] concerns HOP-62 NSCLC.
Assay [4] relates to NCI-H460 lung.
Assay [5] concerns U251 CNS.
Assay [6] concerns MOLT-4 leukemia.
The test system of assay [7] is OVCAR-3 ovarian.
The test system of assay [8] is IGROV1 ovarian.
The test system of assay [9] is CAKI-1 renal.
Assay [10] deals with MDA-MB-435.

Turning to `CCOC(=O)/C(O)=C1\C(=O)N(C)C(=O)C1c1ccc(OC)c(OC)c1` (stereo not drawn), the TGI in assay [1], in assay [2], in assay [3], in assay [4], in assay [5] and in [6] was above 100 µM each time. Also, the TGI in assay [7], in assay [8] and in assay [9] was above 100 µM each time.

In the case of `O=C1C(Br)=CC2([N+](=O)[O-])CCNc3c(O)c4c5c(c3C2=C1Br)=NCCC=5C=N4` (stereo not drawn), the TGI in [2] was determined as 3.7 µM; in [3] it was 11 µM; in [4] it was 12.1 µM; in assay [5], 3.96 µM; in assay [7] it was 0.784 µM; in [8], 4.27 µM. Besides, the TGI in assay [9] was 5.25 µM.

In the case of `CCCCCc1cc(OC(=O)c2c(O)cc(OC)cc2CCCCC)cc(O)c1C(=O)O`, the TGI in assay [1] came to 26.1 µM; in assay [2], 41.3 µM; in [3] it was 30.7 µM; in [4], 31.3 µM; in [5], 29.1 µM; in [6], 60 µM. Besides, the TGI stood at 32.5 µM in assay [8] and 34.5 µM in assay [9].

In the case of `O=C(c1ccc(Cl)cc1)c1ccc(OCC(=O)N2CCN(c3ccccc3)CC2)cc1`, the TGI in assay [1], in [2], in assay [3], in assay [4], in assay [5] and in [6] was above 100 µM in each case. Also, the TGI in [7], in assay [8] and in assay [9] was above 100 µM throughout.

With `COC(=O)C12Oc3ccc(-c4ccc5c(c4O)C(=O)C4=CCC(C)C(O)C4(C(=O)OC)O5)c(O)c3C(=O)C1=CCC(C)C2O` (stereo not drawn), the TGI was 3.28 µM in assay [1]; 6.1 µM in assay [2]; 4.12 µM in assay [3]; 6.33 µM in assay [4]; 3.06 µM in [5]; above 23 µM in assay [6]. The values for the TGI in assay [7], in [8] and in assay [9] were 2.9 µM, 3.81 µM and 4.7 µM, respectively.

On to `COc1ccc2c3c1OC1CC(O)C=CC31CCN(C)C2` (stereo not drawn), for which the TGI in [1], in assay [2], in assay [3], in assay [4], in [5] and in assay [6] was above 150 µM each time. In addition, the TGI in assay [7], in assay [8] and in assay [9] was above 150 µM throughout.

On to `CCC(C)[C@H](NC(=O)N[C@H](C)c1ccccc1)C(=O)OC` (stereo partly drawn), for which the TGI in [2], in [3], in assay [4], in assay [10], in assay [5] and in [6] was above 100 µM each time. Also, the TGI in assay [7], in assay [8] and in [9] was above 100 µM throughout.

Take `CC(=O)C1CC(C)=CCC12C(=O)Nc1ccccc12` (stereo not drawn): the TGI in assay [1], in assay [2], in [3], in [4], in [5] and in assay [6] was above 100 µM throughout. The TGI in assay [7], in assay [8] and in [9] was above 100 µM each time.

With `Oc1ccc(Cl)cc1C1=N/C(=N\CN2CCN(C/N=C3/N=C(c4cc(Cl)ccc4O)CC(c4ccccc4)N3)CC2)NC(c2ccccc2)C1` (stereo not drawn), the TGI in [1] is above 100 µM; in assay [2], 78 µM; in assay [3], above 100 µM; in [4], above 100 µM; in assay [10], above 100 µM; in assay [5] it was above 100 µM. Besides, the TGI in assay [7] is 55.4 µM; in assay [8] it was above 100 µM; in assay [9], 97.6 µM.

On to `COc1cc(OC)c2c(O)cc(CC(C)O)cc2c1` (stereo not drawn), for which the TGI in assay [1], in [2], in [3], in assay [4], in [5] and in assay [6] was above 100 µM throughout. The TGI in assay [7], in [8] and in assay [9] was above 100 µM each time.

Turning to `CN(C)C(=S)N/N=C\C=N/NC(=S)N(C)C`, the TGI in assay [2], in assay [4], in [10], in assay [5], in assay [7] and in [8] was above 100 µM in each case. In assay [9], this compound had a TGI above 100 µM.

`Cc1c(C)c(C)c(-n2[nH]c(=O)n(C)c2=O)c(C)c1C`: the TGI in assay [3], in assay [4], in [10], in [5], in assay [6] and in assay [7] was above 100 µM in each case. The TGI in assay [8] and in [9] was above 100 µM each time.

Take `COC1=CC(=O)c2ccccc2C1(CCC=C(C)C)C1=NC(C)(C)CO1` (stereo not drawn): the TGI in assay [1], in assay [2], in [3], in [4], in assay [5] and in assay [6] was above 100 µM each time. Further, the TGI in assay [7], in assay [8] and in assay [9] was above 100 µM throughout.

For the compound `N/N=C(\C(=O)Nc1c(Cl)cc([N+](=O)[O-])cc1Cl)C(c1cnc2ccc([N+](=O)[O-])cc2n1)[N+](=O)[O-]` (stereo not drawn), the TGI in [2], in assay [3], in [4], in assay [5], in [6] and in [8] was above 100 µM each time. For the same compound, in [9], the TGI was above 100 µM.

Regarding `COc1cc(-c2nc3cc(F)ccc3s2)ccc1O`, the TGI in assay [1], in assay [2], in assay [4], in assay [10], in [5] and in assay [6] was above 100 µM throughout. In addition, the TGI is 79.1 µM in [7], above 100 µM in [8] and above 100 µM in [9].

On to `CC(=O)NCCCCNCCCNC(C)=O`, for which the TGI in assay [1], in [2], in assay [4], in assay [10], in assay [5] and in [6] was above 100 µM in each case. Further, the TGI in assay [8] and in assay [9] was above 100 µM throughout.

For `CCOC/N=C(/N)NC#N`, the TGI in assay [1], in assay [3], in [4], in [5], in [6] and in [7] was above 100 µM each time. Besides, the TGI in [8] and in assay [9] was above 100 µM throughout.

For `Cc1ccc2[nH]cc(-c3nc(-c4c[nH]c5ncccc45)cs3)c2c1`, the GI50 in [2], in assay [3], in assay [10], in assay [5], in assay [6] and in assay [7] was above 100 µM each time. Moreover, the GI50 in assay [8] is above 100 µM. Besides, the TGI in [2], in [3], in [10], in [5], in [6] and in assay [7] was above 100 µM each time. This compound also showed a TGI in assay [8] above 100 µM.

Turning to `CC(C)CCCC(C)[C@H]1CCC2[C@@H]3CCC4Cc5nc6c(nc5C[C@]4(C)C3CC[C@@]21C)CC1CC[C@@H]2C(C[C@@H](O)[C@@]3(C)C2C[C@@H]2OC4(CCC(C)CO4)C(C)[C@@H]23)[C@@]1(C)C6` (stereo partly drawn), the TGI in assay [2], in assay [3], in assay [4], in [10], in [5] and in [6] was above 100 µM in each case. The TGI in assay [7] and in assay [8] was above 100 µM each time.

`COc1ccc2[nH]c3c(c2c1)CCN(C)CC3`: the TGI in [1], in assay [2], in assay [3], in assay [4], in [5] and in [6] was above 100 µM throughout. In addition, the TGI in assay [7], in [8] and in assay [9] was above 100 µM in each case.

`CC(=O)OC(Cc1cc(C=C(C(F)(F)F)C(F)(F)F)cc(C)n1)(C(F)(F)F)C(F)(F)F`: the TGI in assay [1] was above 20.8 µM; in [2], 4.76 µM; in [3] it was 3.42 µM; in [4], 5.09 µM; in assay [10], 2.83 µM; in assay [5], 4.74 µM. Besides, the figures for the TGI in assay [7], in assay [8] and in assay [9] were 3.57 µM, 1.58 µM and 3.45 µM, respectively.

Take `O=[N+]([O-])c1cccc(-c2csc(N=Nc3c(O)[nH]c4ccccc34)n2)c1`: the TGI in [2] is 61.7 µM; in assay [3], 59.6 µM; in [4], 31.8 µM; in assay [10], above 100 µM; in assay [5], 40.4 µM; in assay [6], 69.6 µM. Further, the TGI in [7] is above 100 µM; in [8], 54.6 µM; in assay [9], 47 µM.

Regarding `Cn1c(=O)c2c(nc(NCCCCl)n2CC(=O)O)n(C)c1=O`, the TGI in assay [2], in assay [3], in assay [4], in assay [10], in [5] and in [6] was above 100 µM throughout. In addition, the TGI in [7], in [8] and in assay [9] was above 100 µM in each case.

For the compound `Brc1ccc(N=NN2CCCCC2)cc1`, the TGI is above 100 µM in assay [2]; above 100 µM in [3]; above 100 µM in assay [4]; above 100 µM in assay [10]; above 100 µM in assay [5]; 46.2 µM in [6]. The TGI in [7], in assay [8] and in [9] was above 100 µM in each case.

As to `Cc1cc2c(cc1Cl)Sc1nnc(Nc3ccccc3)n1S2(=O)=O`, the TGI turned out to be 32 µM in [2]; 15 µM in [3]; 33.2 µM in [4]; 54.8 µM in assay [10]; 19.1 µM in [5]; 13.5 µM in [6]. The TGI in assay [7] amounted to 7.1 µM; in [8], 54.6 µM; in assay [9], 53.8 µM.

As to `COc1cccc2cc(C)c(C(=O)c3ccccc3)nc12`, the TGI in assay [1], in assay [2], in assay [3], in [5], in assay [6] and in [7] was above 100 µM in each case. For the same compound, the TGI in [8] and in [9] was above 100 µM throughout.

For the compound `CC1(C)OC2OC(COC(=O)C=[N+]=[N-])C3OC(C)(C)OC3C2O1` (stereo not drawn), the TGI in assay [1], in [2], in assay [3], in assay [4], in [10] and in [5] was above 100 µM throughout. Also, the TGI in assay [7], in [8] and in assay [9] was above 100 µM each time.

For `COc1ccc2c(c1)O[C@@H]1C(O)Oc3cc(OC)c(OC)cc3[C@]1(O)C2=O` (stereo partly drawn), the TGI in assay [2], in assay [3], in assay [4], in assay [10], in [5] and in assay [6] was above 100 µM throughout. For the same compound, the TGI in assay [7], in assay [8] and in assay [9] was above 100 µM each time.

Consider `CCCCOC(=O)CNC(=O)OCCCCC#CC#CCCCCOC(=O)NCC(=O)OCCCC`, for which the TGI in [1], in assay [2], in [3], in assay [4], in assay [5] and in assay [6] was above 100 µM in each case. In addition, the TGI in [8] and in assay [9] was above 100 µM throughout.
